In the supplement of paper PMC10307832:

Experiments:
Test in all cases: relative viability (nuclei count vs DMSO), 5 days (fraction); higher = more cells survive
NCI-H1793 = system: NCI-H1793
In short: (§1)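 Cells from lung cancer lines were seeded into 1536-well plates and, one day later, dosed by pin tool. Treatments were either a single drug or a fixed dose of an anchor drug with five library-drug doses (not always all listed) in √10 steps. After 5 days, nuclei were stained in a one-step fixation (final 0.05% Triton X-100, 1% formaldehyde, 1 ug/ml Hoechst) and counted on 4× images, and relative viability is the treated-to-vehicle nuclei ratio, as the median of duplicate plates.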

NCI-H322M = system: NCI-H322M
In short: as §1

HARA = system: HARA
In short: as §1

LXF-289 = system: LXF-289
In short: as §1

PC-3 [JPC-3] = system: PC-3 [JPC-3]
In short: as §1

NCI-H2126 = system: NCI-H2126
In short: as §1

NCI-H2170 = system: NCI-H2170
In short: as §1

NCI-H23 = system: NCI-H23
In short: as §1

NCI-H1915 = system: NCI-H1915
In short: as §1

NCI-H1666 = system: NCI-H1666
In short: as §1

LCLC-97TM1 = system: LCLC-97TM1
In short: as §1

SK-LU-1 = system: SK-LU-1
In short: as §1

BEN = system: BEN
In short: as §1

NCI-H441 = system: NCI-H441
In short: as §1

NCI-H1755 = system: NCI-H1755
In short: as §1

A-427 = system: A-427
In short: as §1

NCI-H2023 = system: NCI-H2023
In short: as §1

NCI-H1944 = system: NCI-H1944
In short: as §1

NCI-H460 = system: NCI-H460
In short: as §1

NCI-H1395 = system: NCI-H1395
In short: as §1

LU99A = system: LU99A
In short: as §1

LOU-NH91 = system: LOU-NH91
In short: as §1

## O=c1[nH]c2ccccc2n1C1CCN(CCCC(c2ccc(F)cc2)c2ccc(F)cc2)CC1 [Pimozide] + CC1(C)CCC(c2ccc(Cl)cc2)=C(CN2CCN(c3ccc(C(=O)NS(=O)(=O)c4ccc(N[C@H](CCN5CCOCC5)CSc5ccccc5)c(S(=O)(=O)C(F)(F)F)c4)cc3)CC2)C1 [Navitoclax] (partner 0.5 µM)
NCI-H1793; first compound 0.08 µM
  relative viability: 0.532
NCI-H1793; first compound 0.253 µM
  relative viability: 0.485
NCI-H1793; first compound 0.8 µM
  relative viability: 0.389
NCI-H1793; first compound 2.53 µM
  relative viability: 0.48
NCI-H1793; first compound 8 µM
  relative viability: 0.494
NCI-H322M; first compound 0.253 µM
  relative viability: 1.21
NCI-H322M; first compound 0.8 µM
  relative viability: 1.14
NCI-H322M; first compound 2.53 µM
  relative viability: 1.21
NCI-H322M; first compound 8 µM
  relative viability: 1.11
HARA; first compound 0.08 µM
  relative viability: 1.11
HARA; first compound 0.253 µM
  relative viability: 1.18
HARA; first compound 0.8 µM
  relative viability: 1.1
HARA; first compound 2.53 µM
  relative viability: 1.12
HARA; first compound 8 µM
  relative viability: 1.14
LXF-289; first compound 0.08 µM
  relative viability: 0.9
LXF-289; first compound 0.253 µM
  relative viability: 0.93
LXF-289; first compound 0.8 µM
  relative viability: 0.91
LXF-289; first compound 2.53 µM
  relative viability: 0.896
LXF-289; first compound 8 µM
  relative viability: 0.84
PC-3 [JPC-3]; first compound 0.253 µM
  relative viability: 0.73
PC-3 [JPC-3]; first compound 0.8 µM
  relative viability: 0.798
PC-3 [JPC-3]; first compound 2.53 µM
  relative viability: 0.761
PC-3 [JPC-3]; first compound 8 µM
  relative viability: 0.732
NCI-H2126; first compound 0.08 µM
  relative viability: 0.835
NCI-H2126; first compound 0.253 µM
  relative viability: 0.827
NCI-H2126; first compound 0.8 µM
  relative viability: 0.841
NCI-H2126; first compound 2.53 µM
  relative viability: 0.824
NCI-H2126; first compound 8 µM
  relative viability: 0.868
NCI-H2170; first compound 0.08 µM
  relative viability: 0.526
NCI-H2170; first compound 0.253 µM
  relative viability: 0.703
NCI-H2170; first compound 0.8 µM
  relative viability: 0.596
NCI-H2170; first compound 2.53 µM
  relative viability: 0.571
NCI-H2170; first compound 8 µM
  relative viability: 0.585
NCI-H23; first compound 0.08 µM
  relative viability: 0.882
NCI-H23; first compound 0.253 µM
  relative viability: 0.807
NCI-H23; first compound 0.8 µM
  relative viability: 0.732
NCI-H23; first compound 2.53 µM
  relative viability: 0.844
NCI-H23; first compound 8 µM
  relative viability: 0.801
NCI-H1915; first compound 0.08 µM
  relative viability: 0.784
NCI-H1915; first compound 0.253 µM
  relative viability: 0.705
NCI-H1915; first compound 0.8 µM
  relative viability: 0.777
NCI-H1915; first compound 2.53 µM
  relative viability: 0.777
NCI-H1915; first compound 8 µM
  relative viability: 0.786
NCI-H1666; first compound 0.08 µM
  relative viability: 0.824
NCI-H1666; first compound 0.253 µM
  relative viability: 1.01
NCI-H1666; first compound 0.8 µM
  relative viability: 1.04
NCI-H1666; first compound 2.53 µM
  relative viability: 0.846
NCI-H1666; first compound 8 µM
  relative viability: 0.5
LCLC-97TM1; first compound 0.08 µM
  relative viability: 0.527
LCLC-97TM1; first compound 0.253 µM
  relative viability: 0.489
LCLC-97TM1; first compound 0.8 µM
  relative viability: 0.215
LCLC-97TM1; first compound 2.53 µM
  relative viability: 0.415
LCLC-97TM1; first compound 8 µM
  relative viability: 0.402
SK-LU-1; first compound 0.08 µM
  relative viability: 1.09
SK-LU-1; first compound 0.253 µM
  relative viability: 0.815
SK-LU-1; first compound 0.8 µM
  relative viability: 0.804
SK-LU-1; first compound 2.53 µM
  relative viability: 0.76
SK-LU-1; first compound 8 µM
  relative viability: 0.809
BEN; first compound 0.08 µM
  relative viability: 0.0678
BEN; first compound 0.253 µM
  relative viability: 0.06
BEN; first compound 0.8 µM
  relative viability: 0.0809
BEN; first compound 2.53 µM
  relative viability: 0.0665
BEN; first compound 8 µM
  relative viability: 0.0584
NCI-H441; first compound 0.08 µM
  relative viability: 0.685
NCI-H441; first compound 0.253 µM
  relative viability: 0.697
NCI-H441; first compound 0.8 µM
  relative viability: 0.75
NCI-H441; first compound 2.53 µM
  relative viability: 0.487
NCI-H441; first compound 8 µM
  relative viability: 0.346
NCI-H1755; first compound 0.08 µM
  relative viability: 0.963
NCI-H1755; first compound 0.253 µM
  relative viability: 0.941
NCI-H1755; first compound 0.8 µM
  relative viability: 0.969
NCI-H1755; first compound 2.53 µM
  relative viability: 0.882
NCI-H1755; first compound 8 µM
  relative viability: 0.771
A-427; first compound 0.08 µM
  relative viability: 0.965
A-427; first compound 0.253 µM
  relative viability: 1.01
A-427; first compound 0.8 µM
  relative viability: 0.913
A-427; first compound 2.53 µM
  relative viability: 0.88
A-427; first compound 8 µM
  relative viability: 0.918
NCI-H2023; first compound 0.08 µM
  relative viability: 1.03
NCI-H2023; first compound 0.253 µM
  relative viability: 1.03
NCI-H2023; first compound 0.8 µM
  relative viability: 0.988
NCI-H2023; first compound 2.53 µM
  relative viability: 0.957
NCI-H2023; first compound 8 µM
  relative viability: 0.832
NCI-H1944; first compound 0.08 µM
  relative viability: 0.945
NCI-H1944; first compound 0.253 µM
  relative viability: 1.05
NCI-H1944; first compound 0.8 µM
  relative viability: 0.926
NCI-H1944; first compound 2.53 µM
  relative viability: 1.03
NCI-H1944; first compound 8 µM
  relative viability: 0.995
NCI-H460; first compound 0.08 µM
  relative viability: 1.19
NCI-H460; first compound 0.253 µM
  relative viability: 1.12
NCI-H460; first compound 0.8 µM
  relative viability: 1.06
NCI-H460; first compound 2.53 µM
  relative viability: 1.06
NCI-H460; first compound 8 µM
  relative viability: 0.957
NCI-H1395; first compound 0.08 µM
  relative viability: 1.08
NCI-H1395; first compound 0.253 µM
  relative viability: 1.15
NCI-H1395; first compound 0.8 µM
  relative viability: 1.34
NCI-H1395; first compound 2.53 µM
  relative viability: 1.1
NCI-H1395; first compound 8 µM
  relative viability: 1.3
LU99A; first compound 0.08 µM
  relative viability: 0.794
LU99A; first compound 0.253 µM
  relative viability: 0.772
LU99A; first compound 0.8 µM
  relative viability: 0.716
LU99A; first compound 2.53 µM
  relative viability: 0.875
LU99A; first compound 8 µM
  relative viability: 0.806
LOU-NH91; first compound 0.08 µM
  relative viability: 0.309
LOU-NH91; first compound 0.253 µM
  relative viability: 0.734
LOU-NH91; first compound 0.8 µM
  relative viability: 0.736
LOU-NH91; first compound 2.53 µM
  relative viability: 0.788
LOU-NH91; first compound 8 µM
  relative viability: 0.739
